Where two headings read alike, the source gives them in different places.
Experiments:
Format in all cases: in vivo
[1] = test system: 3rd and 4th instar larvae; test: Duration of protection from larvae, Method 2: individual pre-treated beakers used once (Example No. 4); settings: for larvae mortality rates: through one week of treatment
Procedure: Method 2: Clean, glass 600 mL beakers were set up as test containers (such that the surface area of water to be treated was 54 cm^2), and were treated with 1 mL of 1% or 3% nootkatone in ethanol (v/v), or 1 mL of ethanol alone, to achieve a final concentration of 0.01% or 0.03% nootkatone (v/v), respectively. Beakers were lightly covered with Kimwipes to prevent contamination, and to reduce evaporation. Beakers treated with 1 mL of 100% ethanol were used as controls. Four cohorts of 25 3rd and 4th instar larvae were added to individual beakers per day, 3-14 days after treatment with nootkatone, and mortality of larvae was recorded 24 and 48 hours after addition of larvae to beakers.
For the experimental data shown in FIGS. 5-7, the method used included addition and removal of water, and potentially, removal of nootkatone, on each succeeding day. In a new experiment, individual beakers were set up in advance, so that all beakers were used one and only one time to test the longevity of nootkatone, with the only possible loss due to evaporation.
In a separate experiment using the same setup, nootkatone-treated beakers were held for two weeks prior to addition of larvae. Due to the extended time delay, more than 50% of the original liquid volume had evaporated. To avoid having a potentially higher concentration of nootkatone than the desired 0.03%, sterile water was added to bring the total volume back to 100 mL before larval cohorts were added.

Aedes aegypti larvae = test system: Aedes aegypti larvae
Description: This example describes a laboratory bioassay in which groups of mosquito larvae were exposed to a nootkatone-containing composition to determine larval susceptibility to nootkatone.
One milliliter of a solution of nootkatone in ethanol was applied directly to 100 milliliters of water containing larvae, using a micropipette. One treatment condition used 3% (v/v) nootkatone in ethanol, and a second treatment condition used 1% (v/v) nootkatone in ethanol, for final concentrations of 0.03% or 0.01% (v/v), respectively. One milliliter of pure ethanol was used as a control. Four replicates of 25 larvae were tested per treatment. Clean, glass 600 mL laboratory beakers were used as test containers such that the surface area of the water to be treated was 54 cm^2.
(§1) Larvae were observed after 24 hours post-introduction to the test containers.
(§2) Readings were discontinued if treated mortality reached 100%, or control mortality exceeded 20%.

Aedes aegypti pupae [2] = test: Efficacy against mosquito pupae (Example No. 6); settings: for pupae died within 24 hours: 0.03% nootkatone/1% ethanol
Procedure: Eggs of Aedes aegypti were purchased from a commercial supplier. Eggs were hatched in sterile MilliQ water and fed with finely ground Tetramin® fish food until they developed into pupae.
Clean, glass 600 mL beakers were washed and thoroughly rinsed prior to use as test containers. On testing days, pupae were removed from dishes used to grow larvae. Replicates of 10 pupae each were randomly assigned to glass beakers in a volume of 100 mL of sterile MilliQ water, and a treatment of nootkatone (see “Treatments” below), or a control treatment of ethanol alone, was added. Three control replicates and 4 treated replicates were tested on one day, and on a second day, two control replicates and four treated replicates were tested. The beakers were then covered lightly with Kimwipes, secured by rubber bands to prevent escape of adults. The beakers were observed after 24 hours, and the numbers of live pupae, dead pupae, live adults, and dead adults were recorded.
An aliquot of 1 mL of a 3% solution (w/v) of nootkatone in 100% ethanol was added to treatment beakers to obtain a final concentration of 0.03% nootkatone/1% ethanol. Control beakers received 1 mL of 100% ethanol, to obtain a final concentration of 1% ethanol.

Aedes aegypti pupae [3] = test: Prevention of adult emergence (eclosion) from pupae (Example No. 7); settings: for Dead adults, total number / Dead pupae, total number / live adults, total number / live pupae, total number: 0.015% NK/0.5% EtOH in water
Procedure: Eggs of Aedes aegypti were purchased from a commercial supplier. They were hatched in sterile MilliQ water and fed with finely ground Tetramin® fish food until they developed into pupae.
Clean, glass 600 mL beakers were washed and thoroughly rinsed prior to use as test containers. On each of four testing days, pupae were removed from dishes used to grow larvae. Replicates of 10 pupae each were randomly assigned to glass beakers in a volume of 100 mL of sterile MilliQ water, and a treatment of nootkatone (see “Treatments” below), or a control treatment of ethanol alone, was added. The beakers were then covered lightly with Kimwipes, secured by rubber bands to prevent escape of adults. […]
An aliquot of 0.5 mL of a 3% solution (w/v) of nootkatone in 100% ethanol was added to treatment beakers to obtain a final concentration of 0.015% nootkatone/0.5% ethanol. Control beakers received 0.5 mL of 100% ethanol, to obtain a final concentration of 0.5% ethanol.

mosquito larvae = test system: mosquito larvae
Procedure: In this example, concentration titration was performed to determine effective concentrations of nootkatone in nootkatone-containing protective compositions that maintain larvicidal activity, and to determine the effect of surface area on larvicidal activity of nootkatone-containing compositions.
One milliliter of a solution of nootkatone in ethanol was applied directly to 200 milliliters of water containing larvae, using a micropipette. One treatment condition used 3% (v/v) nootkatone in ethanol, a second treatment condition used 1% (v/v) nootkatone in ethanol, and a third treatment used 0.5% (v/v) nootkatone in ethanol, for final concentrations of 30, 10, or 5 mg of nootkatone added per container. One milliliter of pure ethanol was used as a control. Three replicates of 25 larvae were tested per treatment in small- (250 mL flasks (23.8 cm^2 surface area) and medium-sized (600 mL beakers (54 cm^2 surface area)) containers, but only two replicates were made in large 1000 mL beakers (86.6 cm^2 surface area).
Containers were lightly covered with paper towels. Indicated surface areas were calculated based on the inside diameter of the container at the surface level when 200 mL water was added to the container.
as §1, §2

[4] = 0.015% nootkatone/0.5% ethanol, after 48 hours, of 150 pupae

## C=C(C)[C@@H]1CCC2=CC(=O)C[C@@H](C)[C@]2(C)C1 [Nootkatone, nootkatone]
[1]; 0.01% nootkatone (v/v), twenty-four hours of exposure, FIG. 8
  larvae mortality rates: over 80%
[1]; 0.01% nootkatone, larvae added 3 days after water treatment, FIG. 8
  killing at 24 hours: 98%
[1]; 0.01% nootkatone, larvae added 7 days after water treatment, FIG. 8
  killing at 24 hours: 81%
[1]; 0.01% nootkatone, scored 48 hours after addition of larvae, 3-7 days after water treatment, FIG. 9
  larval mortality: 100%
[1]; 0.03% concentration
  nootkatone killing duration: at least two weeks
[1]; 0.03% nootkatone, beakers held two weeks before larvae, volume restored to 100 mL, FIG. 10
  larvae killed within 24 hours: 100%
[1]; 0.03% nootkatone, forty-eight hours of exposure, FIG. 9
  larvae mortality rates: 100%
[1]; 0.03% nootkatone, larvae added 3-7 days after water treatment, FIG. 8
  larvae killed within 24 hours: 100%
Aedes aegypti larvae; 0.01% (v/v) nootkatone final, 24 hours of exposure, four replicates
  larvae killed, on average: 80%
Aedes aegypti larvae; 0.01% (v/v) nootkatone final, after 48 hours
  mortality: 100%
Aedes aegypti larvae; 0.03% (v/v) nootkatone final (1 mL of 3% in ethanol to 100 mL water), 54 cm^2, 24 hours post introduction
  Dead (mortality), mean: 100%
Aedes aegypti larvae; 0.03% (v/v) nootkatone final, 1% ethanol, 100 mL water, 54 cm^2, 24 hours post introduction
  Affected, mean: 100.0%
Aedes aegypti larvae; 0.03% (v/v) nootkatone final, 1% ethanol, 100 mL water, 54 cm^2, 24 hours post introduction, four replicates of 25 larvae
  Morbidity (M), mean: 0%
Aedes aegypti pupae [2]; 0.03% nootkatone/1% ethanol in water, average of two test days, controls 3%, FIG. 12
  pupae died within 24 hours, average: 94%
Aedes aegypti pupae [2]; one experiment
  pupae died within 24 hours: 93%
Aedes aegypti pupae [2]; second day of testing
  pupae died within 24 hours: 95%
Aedes aegypti pupae [3]; 2 DAT (48 hours), of 150 pupae
  Dead adults, total number: 47
  Dead pupae, total number: 103
  live adults, total number: 0
  live pupae, total number: 0
Aedes aegypti pupae [3]; 24 hr, of 150 pupae
  Dead adults, total number: 31
  Dead pupae, total number: 31
  live adults, total number: 0
  live pupae, total number: 88
Aedes aegypti pupae [3]; 0.015% nootkatone/0.5% ethanol (v/v) in water, after 48 hours
  survivors: no survivors
Aedes aegypti pupae [3]; [4]
  share of pupae that died as pupae: 68.7%
  share of pupae that metamorphosed but died during eclosing: 31.3%
Mosquito larvae; 5 mg nootkatone in 200 mL water, 250 mL flasks, 23.8 cm^2, 24 hours
  larval mortality: 68%
Mosquito larvae; 5 mg nootkatone in 200 mL water, largest containers, 86.6 cm^2, 24 hours
  larvae killed: did not kill
Mosquito larvae; 5 mg nootkatone in 200 mL water, medium sized containers, 54 cm^2, 24 hours
  larval mortality: 16%
Mosquito larvae; 10 mg nootkatone in 200 mL water, flasks with smallest surface area 23.8 cm^2 (about 0.42 mg/cm^2)
  larvae killed in 24 hours: killed all larvae
Mosquito larvae; 30 mg nootkatone in 200 mL water, any container size (23.8, 54, 86.6 cm^2)
  larvae killed in 24 hours: kill all larvae
Mosquito larvae; 24 hours, water surface
  surface concentration at which nootkatone exhibits larvicidal properties: at least 0.09 mg/cm^2

Reference: patent US11154057B2, “Use of nootkatone to treat mosquito infestations” (EVOLVA SA, priority 2016, dated 2021)
